Measured values published in paper PMC6422671 (British Journal of Clinical Pharmacology, 2019).

Test: Clinical laboratory findings: haematology; data mean (standard deviation)
Format: in vivo, healthy men
Source text: Data are mean (standard deviation).

SMILES: C[C@@H](N)c1cc(Cl)ccc1Cn1c(=S)[nH]c(=O)c2[nH]ccc21 [AZD4831]
- Basophils (5 mg fasted, 24 h): 0.03 (0.01) 10^9 L^–1
- Eosinophils (5 mg fasted, 24 h): 0.25 (0.12) 10^9 L^–1
- Erythrocyte MCH (5 mg fasted, 24 h): 29.8 (1.2) pg
- Erythrocyte MCH concentration (5 mg fasted, 24 h): 340 (5) g L^–1
- Erythrocyte MCV (5 mg fasted, 24 h): 87.5 (3.3) fL
- Erythrocytes (5 mg fasted, 24 h): 4.90 (0.28) 10^12 L^–1
- Haematocrit (5 mg fasted, 24 h): 0.43 (0.02) ratio
- Haemoglobin (5 mg fasted, 24 h): 146 (6) g L^–1
- Leukocytes (5 mg fasted, 24 h): 5.43 (0.71) 10^9 L^–1
- Lymphocytes (5 mg fasted, 24 h): 1.62 (0.37) 10^9 L^–1
- Monocytes (5 mg fasted, 24 h): 0.37 (0.06) 10^9 L^–1
- Neutrophils (5 mg fasted, 24 h): 3.07 (0.47) 10^9 L^–1
- Platelets (5 mg fasted, 24 h): 246 (44) 10^9 L^–1
- Reticulocytes (5 mg fasted, 24 h): 76.9 (15.3) 10^9 L^–1
- Basophils (5 mg fasted, 48 h): 0.04 (0.02) 10^9 L^–1
- Eosinophils (5 mg fasted, 48 h): 0.23 (0.10) 10^9 L^–1
- Erythrocyte MCH (5 mg fasted, 48 h): 29.6 (1.0) pg
- Erythrocyte MCH concentration (5 mg fasted, 48 h): 338 (6) g L^–1
- Erythrocyte MCV (5 mg fasted, 48 h): 87.7 (3.1) fL
- Erythrocytes (5 mg fasted, 48 h): 4.88 (0.26) 10^12 L^–1
- Haematocrit (5 mg fasted, 48 h): 0.43 (0.02) ratio
- Haemoglobin (5 mg fasted, 48 h): 145 (7) g L^–1
- Leukocytes (5 mg fasted, 48 h): 5.74 (1.20) 10^9 L^–1
- Lymphocytes (5 mg fasted, 48 h): 1.60 (0.38) 10^9 L^–1
- Monocytes (5 mg fasted, 48 h): 0.38 (0.06) 10^9 L^–1
- Neutrophils (5 mg fasted, 48 h): 3.38 (1.02) 10^9 L^–1
- Platelets (5 mg fasted, 48 h): 240 (50) 10^9 L^–1
- Reticulocytes (5 mg fasted, 48 h): 84.4 (20.3) 10^9 L^–1
- Basophils (5 mg fasted, follow up): 0.04 (0.01) 10^9 L^–1
- Eosinophils (5 mg fasted, follow up): 0.26 (0.12) 10^9 L^–1
- Erythrocyte MCH (5 mg fasted, follow up): 29.5 (1.1) pg
- Erythrocyte MCH concentration (5 mg fasted, follow up): 334 (5) g L^–1
- Erythrocyte MCV (5 mg fasted, follow up): 88.2 (3.1) fL
- Erythrocytes (5 mg fasted, follow up): 4.98 (0.36) 10^12 L^–1
- Haematocrit (5 mg fasted, follow up): 0.44 (0.02) ratio
- Haemoglobin (5 mg fasted, follow up): 147 (8) g L^–1
- Leukocytes (5 mg fasted, follow up): 5.94 (1.03) 10^9 L^–1
- Lymphocytes (5 mg fasted, follow up): 1.47 (0.34) 10^9 L^–1
- Monocytes (5 mg fasted, follow up): 0.45 (0.15) 10^9 L^–1
- Neutrophils (5 mg fasted, follow up): 3.59 (0.73) 10^9 L^–1
- Platelets (5 mg fasted, follow up): 249 (38) 10^9 L^–1
- Reticulocytes (5 mg fasted, follow up): 91.6 (15.7) 10^9 L^–1
- Basophils (15 mg fasted, 24 h): 0.04 (0.01) 10^9 L^–1
- Eosinophils (15 mg fasted, 24 h): 0.21 (0.07) 10^9 L^–1
- Erythrocyte MCH (15 mg fasted, 24 h): 29.6 (0.7) pg
- Erythrocyte MCH concentration (15 mg fasted, 24 h): 341 (2) g L^–1
- Erythrocyte MCV (15 mg fasted, 24 h): 86.8 (2.0) fL
- Erythrocytes (15 mg fasted, 24 h): 5.08 (0.27) 10^12 L^–1
- Haematocrit (15 mg fasted, 24 h): 0.44 (0.03) ratio
- Haemoglobin (15 mg fasted, 24 h): 150 (9) g L^–1
- Leukocytes (15 mg fasted, 24 h): 5.94 (1.90) 10^9 L^–1
- Lymphocytes (15 mg fasted, 24 h): 1.75 (0.55) 10^9 L^–1
- Monocytes (15 mg fasted, 24 h): 0.46 (0.17) 10^9 L^–1
- Neutrophils (15 mg fasted, 24 h): 3.37 (1.36) 10^9 L^–1
- Platelets (15 mg fasted, 24 h): 193 (28) 10^9 L^–1
- Reticulocytes (15 mg fasted, 24 h): 77.2 (18.6) 10^9 L^–1
- Basophils (15 mg fasted, 48 h): 0.04 (0.01) 10^9 L^–1
- Eosinophils (15 mg fasted, 48 h): 0.22 (0.07) 10^9 L^–1
- Erythrocyte MCH (15 mg fasted, 48 h): 29.5 (1.1) pg
- Erythrocyte MCH concentration (15 mg fasted, 48 h): 340 (7) g L^–1
- Erythrocyte MCV (15 mg fasted, 48 h): 86.9 (2.9) fL
- Erythrocytes (15 mg fasted, 48 h): 5.03 (0.23) 10^12 L^–1
- Haematocrit (15 mg fasted, 48 h): 0.44 (0.02) ratio
- Haemoglobin (15 mg fasted, 48 h): 148 (8) g L^–1
- Leukocytes (15 mg fasted, 48 h): 6.08 (1.88) 10^9 L^–1
- Lymphocytes (15 mg fasted, 48 h): 1.71 (0.49) 10^9 L^–1
- Monocytes (15 mg fasted, 48 h): 0.52 (0.21) 10^9 L^–1
- Neutrophils (15 mg fasted, 48 h): 3.47 (1.39) 10^9 L^–1
- Platelets (15 mg fasted, 48 h): 204 (25) 10^9 L^–1
- Reticulocytes (15 mg fasted, 48 h): 78.1 (24.5) 10^9 L^–1
- Basophils (15 mg fasted, follow up): 0.04 (0.02) 10^9 L^–1
- Eosinophils (15 mg fasted, follow up): 0.22 (0.08) 10^9 L^–1
- Erythrocyte MCH (15 mg fasted, follow up): 29.1 (1.0) pg
- Erythrocyte MCH concentration (15 mg fasted, follow up): 334 (2) g L^–1
- Erythrocyte MCV (15 mg fasted, follow up): 87.3 (2.5) fL
- Erythrocytes (15 mg fasted, follow up): 5.06 (0.37) 10^12 L^–1
- Haematocrit (15 mg fasted, follow up): 0.44 (0.03) ratio
- Haemoglobin (15 mg fasted, follow up): 147 (10) g L^–1
- Leukocytes (15 mg fasted, follow up): 5.81 (1.43) 10^9 L^–1
- Lymphocytes (15 mg fasted, follow up): 1.63 (0.38) 10^9 L^–1
- Monocytes (15 mg fasted, follow up): 0.49 (0.07) 10^9 L^–1
- Neutrophils (15 mg fasted, follow up): 3.32 (1.20) 10^9 L^–1
- Platelets (15 mg fasted, follow up): 221 (33) 10^9 L^–1
- Reticulocytes (15 mg fasted, follow up): 89.9 (32.9) 10^9 L^–1
- Basophils (45 mg fasted, 24 h): 0.04 (0.02) 10^9 L^–1
- Eosinophils (45 mg fasted, 24 h): 0.20 (0.12) 10^9 L^–1
- Erythrocyte MCH (45 mg fasted, 24 h): 28.4 (2.1) pg
- Erythrocyte MCH concentration (45 mg fasted, 24 h): 335 (8) g L^–1
- Erythrocyte MCV (45 mg fasted, 24 h): 84.8 (5.8) fL
- Erythrocytes (45 mg fasted, 24 h): 5.01 (0.18) 10^12 L^–1
- Haematocrit (45 mg fasted, 24 h): 0.42 (0.03) ratio
- Haemoglobin (45 mg fasted, 24 h): 142 (9) g L^–1
- Leukocytes (45 mg fasted, 24 h): 5.28 (1.15) 10^9 L^–1
- Lymphocytes (45 mg fasted, 24 h): 1.74 (0.42) 10^9 L^–1
- Monocytes (45 mg fasted, 24 h): 0.37 (0.13) 10^9 L^–1
- Neutrophils (45 mg fasted, 24 h): 2.83 (0.90) 10^9 L^–1
- Platelets (45 mg fasted, 24 h): 220 (39) 10^9 L^–1
- Reticulocytes (45 mg fasted, 24 h): 69.8 (16.4) 10^9 L^–1
- Basophils (45 mg fasted, 48 h): 0.04 (0.02) 10^9 L^–1
- Eosinophils (45 mg fasted, 48 h): 0.21 (0.10) 10^9 L^–1
- Erythrocyte MCH (45 mg fasted, 48 h): 28.4 (2.3) pg
- Erythrocyte MCH concentration (45 mg fasted, 48 h): 335 (15) g L^–1
- Erythrocyte MCV (45 mg fasted, 48 h): 84.9 (5.9) fL
- Erythrocytes (45 mg fasted, 48 h): 5.02 (0.33) 10^12 L^–1
- Haematocrit (45 mg fasted, 48 h): 0.43 (0.03) ratio
- Haemoglobin (45 mg fasted, 48 h): 142 (8) g L^–1
- Leukocytes (45 mg fasted, 48 h): 5.69 (1.06) 10^9 L^–1
- Lymphocytes (45 mg fasted, 48 h): 1.79 (0.36) 10^9 L^–1
- Monocytes (45 mg fasted, 48 h): 0.38 (0.10) 10^9 L^–1
- Neutrophils (45 mg fasted, 48 h): 3.16 (0.95) 10^9 L^–1
- Platelets (45 mg fasted, 48 h): 222 (44) 10^9 L^–1
- Reticulocytes (45 mg fasted, 48 h): 77.3 (19.5) 10^9 L^–1
- Basophils (45 mg fasted, follow up): 0.05 (0.02) 10^9 L^–1
- Eosinophils (45 mg fasted, follow up): 0.20 (0.15) 10^9 L^–1
- Erythrocyte MCH (45 mg fasted, follow up): 28.3 (2.3) pg
- Erythrocyte MCH concentration (45 mg fasted, follow up): 333 (10) g L^–1
- Erythrocyte MCV (45 mg fasted, follow up): 85.0 (5.8) fL
- Erythrocytes (45 mg fasted, follow up): 5.08 (0.35) 10^12 L^–1
- Haematocrit (45 mg fasted, follow up): 0.43 (0.02) ratio
- Haemoglobin (45 mg fasted, follow up): 143 (7) g L^–1
- Leukocytes (45 mg fasted, follow up): 5.88 (1.09) 10^9 L^–1
- Lymphocytes (45 mg fasted, follow up): 1.61 (0.45) 10^9 L^–1
- Monocytes (45 mg fasted, follow up): 0.45 (0.13) 10^9 L^–1
- Neutrophils (45 mg fasted, follow up): 3.45 (1.25) 10^9 L^–1
- Platelets (45 mg fasted, follow up): 245 (38) 10^9 L^–1
- Reticulocytes (45 mg fasted, follow up): 79.1 (19.3) 10^9 L^–1
